Type in all cases: biochemical
Assay [1] has as its target T1, HCV NS3/4A protease complex (J4L6S strain) (Hepatitis C virus genotype 1b, UniProt O92972, C1454S/C1711G).
T1 construct: DNA encoding the recombinant HCV NS3/4A protease complex (amino acids 1027 to 1711) for these strains; inferred from pET21b vector and Ni-NTA purification; made in house; host or cells: Escherichia coli BL21 (DE3), pET21b
The assay can be described thus: FRET peptide assay to monitor HCV NS3/4A proteolytic activity, J4L6S strain. The source says: (§1) HCV NS3 protease complexes, derived from the BMS strain, H77 strain or J4L6S strain, were generated, as described below. These purified recombinant proteins were generated for use in a homogeneous assay (see below) to provide an indication of how effective compounds of the present disclosure would be in inhibiting HCV NS3 proteolytic activity.
(§2) The H77 and J4L6S strains were used for production of recombinant NS3/4A protease complexes. DNA encoding the recombinant HCV NS3/4A protease complex (amino acids 1027 to 1711) for these strains was manipulated as described by P. Gallinari et al. (see Gallinari P, Paolini C, Brennan D, Nardi C, Steinkuhler C, De Francesco R. Biochemistry. 38(17):5620-32, (1999)). Briefly, a three-lysine solubilizing tail was added at the 3′-end of the NS4A coding region. The cysteine in the P1 position of the NS4A-NS4B cleavage site (amino acid 1711) was changed to a glycine to avoid the proteolytic cleavage of the lysine tag. Furthermore, a cysteine to serine mutation was introduced by PCR at amino acid position 1454 to prevent the autolytic cleavage in the NS3 helicase domain. […]

Assay [2] concerns the target T2, HCV NS3/4A protease complex (H77 strain) (Hepatitis C virus genotype 1a, UniProt P27958, C1454S/C1711G).
T2 construct: DNA encoding the recombinant HCV NS3/4A protease complex (amino acids 1027 to 1711) for these strains; inferred from pET21b vector and Ni-NTA purification; made in house; host or cells: Escherichia coli BL21 (DE3), pET21b
The assay can be described thus: FRET peptide assay to monitor HCV NS3/4A proteolytic activity, H77 strain.
Excerpt: as §1, §2

Assay [3] addresses T3, porcine pancreatic elastase (PPE) (Sus scrofa, UniProt P00772).
T3 construct: purchased Sigma or EMDbiosciences
Nature of the assay: Specificity assay, porcine pancreatic elastase. The conditions noted are these: read-out: PPE activity in the specificity assays (IC50). The procedure: The specificities of compounds of the present disclosure were determined against a variety of serine proteases: human neutrophil elastase (HNE), porcine pancreatic elastase (PPE) and human pancreatic chymotrypsin and one cysteine protease: human liver cathepsin B. In all cases, a 96-well plate format protocol using colorimetric p-nitroaniline (pNA) substrate or fluorometric Amino-Methyl-Coumarin (AMC) substrate, specific for each enzyme was used as described previously (PCT Patent Application No. WO 00/09543) with some modifications. All enzymes were purchased from Sigma or EMDbiosciences while the substrates were from Bachem.
Each pNA assay included a 2 hours enzyme-inhibitor pre-incubation at room temperature followed by addition of substrate and hydrolysis to ˜15% conversion as measured on a Spectramax Pro microplate reader. The cathepsin B assay was initiated by adding substrate to a 10 min enzyme-inhibitor pre-incubation at room temperature, and the assay plate measured immediately using the Cytofluor Series 4000. Compound concentrations varied from 100 to 0.4 μM depending on their potency. […]
The percentage of inhibition was calculated using the formula: [1−((UVinh−UVblank)/(UVctl−UVblank))]×100 […]

T2 sequence (P27958 1027-1711 C1454S/C1711G, one chain of several): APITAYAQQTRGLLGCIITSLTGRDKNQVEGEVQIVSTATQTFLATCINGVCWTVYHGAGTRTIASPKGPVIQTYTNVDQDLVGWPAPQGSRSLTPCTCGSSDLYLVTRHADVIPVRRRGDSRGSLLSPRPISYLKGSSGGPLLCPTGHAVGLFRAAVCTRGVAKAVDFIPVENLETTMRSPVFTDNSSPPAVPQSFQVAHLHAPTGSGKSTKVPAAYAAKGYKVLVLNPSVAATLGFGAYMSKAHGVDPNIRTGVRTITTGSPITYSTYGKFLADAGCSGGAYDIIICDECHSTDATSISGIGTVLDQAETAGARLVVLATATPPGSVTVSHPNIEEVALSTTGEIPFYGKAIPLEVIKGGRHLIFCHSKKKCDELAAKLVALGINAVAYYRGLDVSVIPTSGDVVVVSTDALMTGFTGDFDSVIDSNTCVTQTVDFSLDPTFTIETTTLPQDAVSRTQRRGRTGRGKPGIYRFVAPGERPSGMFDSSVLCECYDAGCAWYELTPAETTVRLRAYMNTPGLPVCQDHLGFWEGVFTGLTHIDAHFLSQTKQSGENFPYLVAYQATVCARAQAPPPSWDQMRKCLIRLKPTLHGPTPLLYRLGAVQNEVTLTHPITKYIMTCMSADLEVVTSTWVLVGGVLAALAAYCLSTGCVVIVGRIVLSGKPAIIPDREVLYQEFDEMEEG
T1 sequence (O92972 1027-1711 C1454S/C1711G, one chain of several): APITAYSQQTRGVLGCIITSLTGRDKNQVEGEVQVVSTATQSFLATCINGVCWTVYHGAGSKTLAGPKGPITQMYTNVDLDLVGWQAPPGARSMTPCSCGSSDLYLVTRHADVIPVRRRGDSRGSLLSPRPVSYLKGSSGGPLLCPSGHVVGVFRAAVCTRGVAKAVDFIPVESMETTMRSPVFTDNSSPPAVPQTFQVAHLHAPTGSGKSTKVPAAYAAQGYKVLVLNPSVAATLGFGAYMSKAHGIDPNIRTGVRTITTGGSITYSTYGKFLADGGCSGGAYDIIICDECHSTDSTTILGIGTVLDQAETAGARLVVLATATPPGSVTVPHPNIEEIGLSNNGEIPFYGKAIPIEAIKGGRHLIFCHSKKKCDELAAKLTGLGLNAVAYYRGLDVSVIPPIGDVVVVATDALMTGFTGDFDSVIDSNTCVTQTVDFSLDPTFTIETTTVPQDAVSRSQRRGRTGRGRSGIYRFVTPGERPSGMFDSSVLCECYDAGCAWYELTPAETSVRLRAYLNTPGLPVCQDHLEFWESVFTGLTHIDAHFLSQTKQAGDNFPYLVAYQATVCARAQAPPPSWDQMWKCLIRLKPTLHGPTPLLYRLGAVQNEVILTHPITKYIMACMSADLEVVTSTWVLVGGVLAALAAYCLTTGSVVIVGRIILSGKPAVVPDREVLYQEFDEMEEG
T3 sequence (P00772 27-266): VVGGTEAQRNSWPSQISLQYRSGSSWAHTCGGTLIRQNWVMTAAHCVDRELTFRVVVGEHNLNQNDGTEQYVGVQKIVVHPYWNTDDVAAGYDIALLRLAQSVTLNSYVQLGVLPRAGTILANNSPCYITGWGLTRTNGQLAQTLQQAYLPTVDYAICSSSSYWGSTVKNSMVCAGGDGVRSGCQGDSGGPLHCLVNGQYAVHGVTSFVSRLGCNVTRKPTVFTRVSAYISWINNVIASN

`C=C[C@@H]1C[C@]1(NC(=O)[C@@H]1C[C@@H](OC(=O)N2Cc3cccc(F)c3C2)CN1C(=O)[C@@H](OC(=O)NC(C)(C)C)C(C)(C)C)C(=O)NS(=O)(=O)C1CC1` [Example 56Compound 56]: the half-inhibitory concentration (IC50) was 9.8 nM in assay [1], 17 nM in assay [2] and greater than 100000 nM in assay [3].

(Values after US7323447B2, “Hepatitis C virus inhibitors” (Bristol-Myers Squibb Company, priority 2005, dated 2008).)
